Experimental data as given in US20040209841A1, “Association compound of trehalose or maltitol with metal ion compound” (priority 2001, published 2004).
Like-named read-outs stand apart in the source and are kept apart here.

Columns and labels:
[1] = Hygroscopicity (deliquescence) test; type: physicochemical; details: for Moisture content/g-sample: 25° C.
Method: A dried bittern powder was prepared by drying bittern solution in vacuo at 60° C. for 15 hours, pulverized, and dried in a usual manner for use as a control. The moisture content (weight of moisture per one gram of the sample) of each sample was measured by conventional drying loss method. […] The weight of the content in each cup was measured at the initiation of preservation (0 day preservation), and 1, 2, 4, and 7 days after the initiation. The amount of moisture per one gram of each at sample after 1 to 7 days preservation was calculated based on the assumption that the increased amount measured to that of 0 day preservation was the amount of moisture absorbed by each sample.

[2] = Change of solubility of metal ion compounds by the association with trehalose (precipitation of crystal); type: physicochemical
Method: The changes of solubility in water of trehalose and/or metal ion compounds were examined under coexistence of trehalose and metal ion compounds. […] Solutions prepared by dissolving the same amount of trehalose only or that of metal ion compounds only were prepared as controls. After dissolving the contents completely, all the beakers were allowed to stand at room temperature (25° C.) for 24 hours. Successively, precipitation of crystals was judged by macroscopic observation. In the case of precipitating crystals, the formed crystals were collected and analyzed for those component(s) by conventional method.

[3] = pH 3.5
Method: Effects of trehalose, maltitol, and other saccharides on the solubilities of calcium-organic acid salts were investigated as follows. […] Successively, five grams of commercially available calcium DL-lactate pentahydrate or calcium gluconate monohydrate, used as calcium-organic acid salts, were added to each saccharide solution, followed by suspension. Thereafter, the pH of each solution was adjusted to 3.5, and the solution was filled up to give a volume of 50 ml with deionized water. After stirring at 25° C. for 16 hours, insoluble calcium-organic acid salts were removed by centrifuging (15,000 rpm for 30 minutes). The pHs of the resulting supernatants were measured. The calcium concentrations of the supernatant were measured using an atomic adsorption photometer described in Experiment 5. The solution prepared with no saccharide was also measured for calcium concentration in the same manner as control.

[4] = Suppressing effect on the oxidation of ferrous ion (Nitroso-DMAP method); type: physicochemical; details: for Amount of Fe2+ ion (mg/ml) After light-irradiation: 37° C. four hours, light of about 9,000 luxes, 5% (w/v) saccharide; for Amount of Fe2+ ion (mg/ml) Before light-irradiation: ferrous chloride 1% (w/v) as ferrous ion + 5% (w/v) saccharide
Method: Generally, ferrous ion (divalent, Fe^2+) and ferric ion (trivalent, Fe^3+) are known as ions of iron element. Ferrous ion is easily oxidized with light or heat and converted to ferric ion. Effects of trehalose and maltitol on the phenomenon were investigated as follows. An aqueous solution, comprising ferrous chloride (FeCl2) tetrahydrate corresponding to the amount of 1% (w/v) as ferrous ion, and comprising trehalose or maltitol corresponding to the amount of 5% (w/v), d.s.b., was prepared as a test solution. While, a solution, comprising ferrous chloride only with the same concentration to the test solution, was prepared as a control solution. After preparing the test and control solutions, small portions of which were sampled respectively, and the amount of ferrous ion was measured by the Nitroso-DMAP method described later. Successively, 10 ml each of the test and control solution was placed separately in a 20 ml-vial and sealed. After preserving these vials at 37° C. for four hours with irradiating a light of about 9,000 luxes, the amount of ferrous ion in each solution was measured by the Nitroso-DMAP method. Measurement by the Nitroso-DMAP method was carried out as follows. After diluting the test or control solution accurately by 100-fold, 0.5 ml of the dilute was placed in a 50 ml-volumetric flask. […] After the above procedure, the absorbance at 750 nm (within the visible light range) of the solution was measured. The standard solutions, prepared by diluting stepwise a ferrous chloride solution with known concentration, were used for the measurement in the same manner to obtain a standard curve for quantitative analysis. The amount of ferrous ion of the test or the control solution was determined with the standard curve.

[5] = Suppressing effect on the deterioration of ascorbic acid under the presence of metal ion (degree of coloring); type: physicochemical; details: 50° C.; for Degree of coloring (Abs. at 420 nm) Preserved for 96 hrs: 14.8 mM AsA + 10 mM FeCl2 + 100 mM saccharide
Method: L-Ascorbic acid deteriorates rapidly by the oxidative degradation in the presence of iron and copper ions and causes the browning. The effects of trehalose and maltitol on the phenomenon were investigated as follows. Ten kinds of aqueous solutions having respective compositions described in Table 12 were prepared. Aqueous solutions of L-ascorbic acid alone or L-ascorbic acid and metal ion compounds were used as controls. The test solutions were prepared by adding trehalose or maltitol to the control solutions. Ten milliliters of each of these test and control solutions were placed into different 20 ml-vials and sealed. The vials were preserved at 50° C. The control and test solutions, containing ferrous chloride, and those containing ferric chloride or copper sulfate were preserved for 96 hours and 40 hours, respectively. After the preservation, the degree of coloring of each solution was measured. In the case of a control solution containing L-ascorbic acid alone, the degrees of coloring were measured at the preservation periods of 40 hours and 96 hours. The absorbance at 420 nm (within the visible light range) of each sample was measured as the degree of coloring.

[6] = 0.1 mole metal ion compound only, 30 grams of water, 25° C. 24 hours
[7] = 14.8 mM AsA + 10 mM CuSO4 + 100 mM saccharide
[8] = 14.8 mM AsA + 10 mM FeCl3 + 100 mM saccharide

O.O.[Ca+2].[Cl-].[Cl-] [CaCl2 · 2H2O, calcium chloride dihydrate]
moisture content (weight of moisture per one gram of the sample) ([1]; before preservation, drying loss method): 0.245 g | Moisture content/g-sample ([1]; relative humidity 33.0%, 0 day): 0.245 g | Moisture content/g-sample ([1]; relative humidity 33.0%, 1 day): 0.289 g | Moisture content/g-sample ([1]; relative humidity 33.0%, 2 days): 0.312 g | Moisture content/g-sample ([1]; relative humidity 33.0%, 3 days): 0.343 g | Moisture content/g-sample ([1]; relative humidity 33.0%, 7 days): 0.364 g | Moisture content/g-sample ([1]; relative humidity 52.8%, 0 day): 0.245 g | Moisture content/g-sample ([1]; relative humidity 52.8%, 1 day): 0.319 g | Moisture content/g-sample ([1]; relative humidity 52.8%, 2 days): 0.359 g | Moisture content/g-sample ([1]; relative humidity 52.8%, 3 days): 0.405 g | Moisture content/g-sample ([1]; relative humidity 52.8%, 7 days): 0.430 g

[Cl][Cu] [Cuprous chloride, cuprous chloride dihydrate]
Precipitation of crystal In the absence of trehalose [2, 6]: Precipitated

O.O.O.O.[Cl][Fe][Cl] [Ferrous chloride, ferrous chloride tetrahydrate]
Precipitation of crystal In the absence of trehalose [2, 6]: Precipitated

OC[C@@H](O)[C@@H](O[C@H]1O[C@H](CO)[C@@H](O)[C@H](O)[C@H]1O)[C@H](O)[C@@H](O)CO [Maltitol, maltitol]
Relative conc. (%), Calcium gluconate [3]: 128% | Relative conc. (%), Calcium lactate [3]: 123% | increase of calcium concentration in the supernatant in comparison with control, calcium gluconate [3]: 28% | increase of calcium concentration in the supernatant in comparison with control, calcium lactate [3]: 23% | Amount of Fe2+ ion (mg/ml) After light-irradiation [4]: 4.3 mg/mL | Amount of Fe2+ ion (mg/ml) Before light-irradiation [4]: 10.2 mg/mL | Degree of coloring (Abs. at 420 nm) Preserved for 40 hrs [5, 7]: 0.258 | Degree of coloring (Abs. at 420 nm) Preserved for 96 hrs [5]: 0.291 | Degree of coloring (Abs. at 420 nm) Preserved for 40 hrs [5, 8]: 0.198

O.O.O.O.[Cl][Mn][Cl] [Manganese chloride, manganese chloride tetrahydrate]
Precipitation of crystal In the presence of trehalose ([2]; 0.1 mole metal ion compound + 0.1 mole trehalose, 30 grams of water, room temperature (25° C.) 24 hours, macroscopic observation): None | Precipitation of crystal In the absence of trehalose [2, 6]: Precipitated

O.O.O.O.O.O.[Cl][Ni][Cl] [Nickel chloride, nickel chloride hexahydrate]
Precipitation of crystal In the absence of trehalose [2]: Precipitated | Precipitation of crystal In the presence of trehalose [2]: None

OC[C@H]1O[C@H](O[C@H]2O[C@H](CO)[C@@H](O)[C@H](O)[C@H]2O)[C@H](O)[C@@H](O)[C@@H]1O [Trehalose, α,α-trehalose]
Relative conc. (%), Calcium gluconate ([3]; 16 h, 100 mg/ml): 112% | Relative conc. (%), Calcium lactate ([3]; 16 h, 100 mg/ml): 129% | increase of calcium concentration in the supernatant in comparison with control, calcium gluconate ([3]; 16 h, 100 mg/ml): 12% | increase of calcium concentration in the supernatant in comparison with control, calcium lactate ([3]; 16 h, 100 mg/ml): 29% | Amount of Fe2+ ion (mg/ml) After light-irradiation [4]: 4.4 mg/mL | Amount of Fe2+ ion (mg/ml) Before light-irradiation [4]: 10.1 mg/mL | Degree of coloring (Abs. at 420 nm) Preserved for 40 hrs [5, 7]: 0.311 | Degree of coloring (Abs. at 420 nm) Preserved for 96 hrs [5]: 0.380 | Degree of coloring (Abs. at 420 nm) Preserved for 40 hrs [5, 8]: 0.226
